{"source": "patent US12552748B2", "about": "“Pyridine (thio)amides as fungicidal compounds” (Bayer Aktiengesellschaft, priority 2020, dated 2026)", "note": "Marks after values point to notes of the source that are not given here."}
{"experiment": "physchem", "format": "physicochemical", "description": "Measurement of Log P values as provided herein was performed according to EEC directive 79/831 Annex V.A8 by HPLC (High Performance Liquid Chromatography) on reversed phase columns with the following methods: […] If more than one Log P value is available within the same method, all the values are given and separated by “+”. Calibration was done with straight-chain alkan2-ones (with 3 to 16 carbon atoms) with known Log P values (measurement of Log P values using retention times with linear interpolation between successive alkanones). Lambda-max-values were determined using UV-spectra from 200 nm to 400 nm and the peak values of the chromatographic signals"}
{"smiles": "CON=C(C)c1cc(C(=O)NCCc2ccc(C)cc2C)c(Oc2cccc(C(F)(F)F)c2)cn1", "note": "(mixture of isomers) [Compound I-251]", "LogP": "5.36^[a]"}
{"smiles": "O=C(NCC(F)c1ccc(Cl)cc1Cl)c1cc(Cl)ncc1Oc1cccc(Cl)c1", "note": "(racemic) [Compound I-035]", "LogP": "4.80^[a]"}
{"smiles": "O=C(NCC(F)c1ccc(Cl)cc1Cl)c1cc(Cl)ncc1Oc1cccc(C(F)F)c1", "note": "(racemic) [Compound I-037]", "LogP": "4.40^[a]"}
{"smiles": "COc1cccc(Oc2cnc(Cl)cc2C(=O)NCC(F)c2ccc(Cl)cc2Cl)c1", "note": "(racemic) [Compound I-041]", "LogP": "4.51^[a]"}
{"smiles": "Cc1cccc(Oc2cnc(Cl)cc2C(=O)NCC(F)c2ccc(Cl)cc2Cl)c1", "note": "(racemic) [Compound I-043]", "LogP": "4.92^[a]"}
{"smiles": "Cc1cc(C(=O)NCC(F)c2ccc(Cl)cc2Cl)c(Oc2cccc(Cl)c2)cn1", "note": "(racemic) [Compound I-053]", "LogP": "4.12^[a]"}
{"smiles": "Cc1ccc(C(F)CNC(=O)c2cc(C)ncc2Oc2cccc(Cl)c2)c(Cl)c1", "note": "(racemic) [Compound I-054]", "LogP": "3.98^[a]"}
{"smiles": "Cc1cc(C(=O)NCC(F)c2ccc(Cl)cc2Cl)c(Oc2cccc(C(F)F)c2)cn1", "note": "(racemic) [Compound I-055]", "LogP": "3.78^[a]"}
{"smiles": "Cc1cccc(Oc2cnc(C)cc2C(=O)NCC(F)c2ccc(C)cc2Cl)c1", "note": "(racemic) [Compound I-056]", "LogP": "3.96^[a]"}
{"smiles": "O=C(NCC(F)c1ccc(Cl)cc1Cl)c1cc(Cl)ncc1Oc1cccc(C2CC2)c1F", "note": "(racemic) [Compound I-060]", "LogP": "5.17^[a]"}
{"smiles": "O=C(NCC(F)c1ccc(Cl)cc1Cl)c1cc(Cl)ncc1Oc1cccc(C2CC2)c1", "note": "(racemic) [Compound I-063]", "LogP": "4.92^[a]"}
{"smiles": "Cc1ccc(C(F)CNC(=O)c2cc(C)ncc2Oc2cccc(C3CC3)c2)c(Cl)c1", "note": "(racemic) [Compound I-073]", "LogP": "4.30^[a]"}
{"smiles": "O=C(NCC(F)c1ccc(Cl)cc1Cl)c1cc(C2CC2)ncc1Oc1cccc(C2CC2)c1F", "note": "(racemic) [Compound I-074]", "LogP": "5.32^[a]"}
{"smiles": "Cc1ccc(C(F)CNC(=O)c2cc(C)ncc2Oc2cccc(C3CC3)c2F)c(Cl)c1", "note": "(racemic) [Compound I-076]", "LogP": "4.49^[a]"}
{"smiles": "Cc1cc(C(=O)NCC(F)c2ccc(Cl)cc2Cl)c(Oc2cccc(C3CC3)c2F)cn1", "note": "(racemic) [Compound I-078]", "LogP": "4.49^[a]"}
{"smiles": "Cc1ccc(C(F)CNC(=O)c2cc(Cl)ncc2Oc2cccc(C(F)(F)F)c2)cc1C", "note": "(racemic) [Compound I-079]", "LogP": "4.70^[a]"}
{"smiles": "Cc1cc(C(F)F)ccc1C(F)CNC(=O)c1cc(Cl)ncc1Oc1cccc(C(F)(F)F)c1", "note": "(racemic) [Compound I-080]", "LogP": "4.40^[a]"}
{"smiles": "COc1cc(C(F)CNC(=O)c2cc(Cl)ncc2Oc2cccc(C(F)(F)F)c2)ccc1Cl", "note": "(racemic) [Compound I-081]", "LogP": "4.37^[a]"}
{"smiles": "O=C(NCC(F)c1ccc(Cl)c(Cl)c1)c1cc(Cl)ncc1Oc1cccc(C(F)(F)F)c1", "note": "(racemic) [Compound I-082]", "LogP": "4.81^[a]"}
{"smiles": "Cc1ccc(C(F)CNC(=O)c2cc(Cl)ncc2Oc2cccc(C(F)(F)F)c2)c(Cl)c1", "note": "(racemic) [Compound I-083]", "LogP": "4.78^[a]"}
{"smiles": "Cc1cc(Cl)ccc1C(F)CNC(=O)c1cc(Cl)ncc1Oc1cccc(C(F)(F)F)c1", "note": "(racemic) [Compound I-084]", "LogP": "4.81^[a]"}
{"smiles": "O=C(NCC(F)c1ccc(C2CC2)cc1Cl)c1cc(Cl)ncc1Oc1cccc(C(F)(F)F)c1", "note": "(racemic) [Compound I-085]", "LogP": "5.08^[a]"}
{"smiles": "Cc1cc(Br)ccc1C(F)CNC(=O)c1cc(Cl)ncc1Oc1cccc(C(F)(F)F)c1", "note": "(racemic) [Compound I-086]", "LogP": "4.93^[a]"}
{"smiles": "O=C(NCC(F)c1ccc(Cl)cc1Cl)c1cc(Cl)nc(F)c1Oc1cccc(C(F)(F)F)c1", "note": "(racemic) [Compound I-091]", "LogP": "5.08^[a]"}
{"smiles": "Cc1cccc(Oc2cnc(C)cc2C(=O)NCC(F)c2ccc(Cl)cc2Cl)c1", "note": "(racemic) [Compound I-161]", "LogP": "4.13^[a]"}
{"smiles": "C[Si](C)(C)C#Cc1cc(C(=O)NCC(F)c2ccc(Cl)cc2Cl)c(Oc2cccc(C(F)(F)F)c2)cn1", "note": "(racemic) [Compound I-176]", "LogP": "6.01^[a]"}
{"smiles": "C#Cc1cc(C(=O)NCC(F)c2ccc(Cl)cc2Cl)c(Oc2cccc(C(F)(F)F)c2)cn1", "note": "(racemic) [Compound I-189]", "LogP": "4.41^[a]"}
{"smiles": "CCc1cc(C(=O)NCC(F)c2ccc(Cl)cc2Cl)c(Oc2cccc(C3CC3)c2)cn1", "note": "(racemic) [Compound I-190]", "LogP": "4.92^[a]"}
{"smiles": "O=C(NCC(F)c1ccc(Cl)cc1Cl)c1cc(-c2ccncc2Cl)ncc1Oc1cccc(C(F)(F)F)c1", "note": "(racemic) [Compound I-195]", "LogP": "4.68^[a]"}
{"smiles": "Cc1ccc(C(F)CNC(=O)c2cc(C)ncc2Oc2cccc(C(F)(F)F)c2)c(Cl)c1", "note": "(racemic) [Compound I-263]", "LogP": "4.08^[a]"}
{"smiles": "Cc1ccc(CCNC(=O)c2cc(Cl)ncc2Oc2cccc(C3CC3F)c2)c(C)c1", "note": "(single isomer, unassigned) [Compound I-265]", "LogP": "4.70^[a]"}
{"smiles": "O=C(O)c1cc(Cl)ncc1Oc1cccc(C(F)(F)F)c1", "note": "[Compound 1-001]", "LogP": "2.84^[a]"}
{"smiles": "C#Cc1cc(C(=O)O)c(Oc2cccc(C(F)(F)F)c2)cn1", "note": "[Compound 1-002]", "LogP": "2.39^[a]"}
{"smiles": "C#Cc1cc(C(=O)OC)c(Oc2cccc(C(F)(F)F)c2)cn1", "note": "[Compound 1-003]", "LogP": "3.46^[a]"}
{"smiles": "COC(=O)c1cc(C#C[Si](C)(C)C)ncc1Oc1cccc(C(F)(F)F)c1", "note": "[Compound 1-004]", "LogP": "5.35^[a]"}
{"smiles": "O=C(O)c1cc(Cl)ncc1Oc1cccc(Cl)c1", "note": "[Compound 1-005]", "LogP": "2.76^[a]"}
{"smiles": "O=C(O)c1cc(Cl)ncc1Oc1cccc(C(F)F)c1", "note": "[Compound 1-006]", "LogP": "2.48^[a]"}
{"smiles": "COc1cccc(Oc2cnc(Cl)cc2C(=O)O)c1", "note": "[Compound 1-007]", "LogP": "2.34^[a]"}
{"smiles": "Cc1cccc(Oc2cnc(Cl)cc2C(=O)O)c1", "note": "[Compound 1-008]", "LogP": "2.60^[a]"}
{"smiles": "O=C(O)c1cc(Cl)ncc1Oc1cccc(C2CC2)c1F", "note": "[Compound 1-009]", "LogP": "2.97^[a]"}
{"smiles": "O=C(O)c1cc(Cl)ncc1Oc1cccc(C2CC2)c1", "note": "[Compound 1-010]", "LogP": "2.87^[a]"}
{"smiles": "CC(=O)c1cc(C(=O)O)c(Oc2cccc(C(F)(F)F)c2)cn1", "note": "[Compound 1-011, 2-acetyl-5-[3-(trifluoromethyl)phenoxy]pyridine-4-carboxylic acid]", "chromatographic logP": 2.54}
{"smiles": "COC(=O)c1cc(C(C)=O)ncc1Oc1cccc(C(F)(F)F)c1", "note": "[Compound 1-012, methyl 2-acetyl-5-[3-(trifluoromethyl)phenoxy]pyridine-4-carboxylate]", "chromatographic logP": 3.59}
{"smiles": "C=C(OCC)c1cc(C(=O)OC)c(Oc2cccc(C(F)(F)F)c2)cn1", "note": "[Compound 1-013, methyl 2-(1-ethoxyvinyl)-5-[3-(trifluoromethyl)phenoxy]pyridine-4-carboxylate]", "chromatographic logP": 4.7}
{"smiles": "O=C(O)c1cc(Cl)nc(F)c1Oc1cccc(C(F)(F)F)c1", "note": "[Compound 1-014, 6-chloro-2-fluoro-3-[3-(trifluoromethyl)phenoxy]pyridine-4-carboxylic acid]", "chromatographic logP": 2.95}
{"smiles": "N#Cc1nc(Cl)cc(C(=O)O)c1Oc1cccc(C(F)(F)F)c1", "note": "[Compound 1-016]", "LogP": "2.40^[a]"}
{"smiles": "COc1cc(C(=O)O)c(Oc2cccc(C(F)(F)F)c2)cn1", "note": "[Compound 1-017]", "LogP": "2.86^[a]"}
{"smiles": "COc1cc(C(=O)NCCc2ccc(C)cc2C)c(Oc2cccc(C(F)(F)F)c2)cn1", "note": "[Compound 1-160]", "LogP": "4.69^[a]"}
{"smiles": "Cc1ccc(CCNC(=O)c2cc(Cl)ncc2Br)c(C)c1", "note": "[Compound 3-001, 5-bromo-2-chloro-N-[2-(2,4-dimethylphenyl)ethyl]pyridine-4-carboxamide]", "chromatographic logP": 3.4}
{"smiles": "Cc1ccc(CCNC(=O)c2cc(C(F)(F)F)ncc2Br)c(C)c1", "note": "[Compound 3-002]", "LogP": "3.77^[a]"}
{"smiles": "Cc1ccc(C(F)(F)CNC(=O)c2cc(Cl)ncc2Br)c(C)c1", "note": "[Compound 3-003]", "LogP": "3.57^[a]"}
{"smiles": "O=C(NCC(F)(F)c1ccc(Br)cc1Cl)c1cc(Cl)ncc1Br", "note": "[Compound 3-004]", "LogP": "3.68^[a]"}
{"smiles": "Cc1ccc(C(F)(F)CNC(=O)c2c(Br)cnc(Cl)c2F)c(C)c1", "note": "[Compound 3-005, 5-bromo-2-chloro-N-[2-(2,4-dimethylphenyl)-2,2-difluoro-ethyl]-3-fluoro-pyridine-4-carboxamide]", "chromatographic logP": 3.81}
{"smiles": "Cc1ccc(C(F)(F)CNC(=O)c2c(Br)cnc(Cl)c2Cl)c(C)c1", "note": "[Compound 3-006]", "LogP": "3.98^[a]"}
{"smiles": "COc1c(Cl)ncc(Br)c1C(=O)NCC(F)(F)c1ccc(C)cc1C", "note": "[Compound 3-007]", "LogP": "3.75^[a]"}
{"smiles": "O=C(NCC(F)(F)c1ccc(Br)cc1Cl)c1cc(Cl)ncc1Oc1cccc(C(F)(F)F)c1", "note": "[Compound I-001]", "LogP": "5.00^[a]"}
{"smiles": "Cc1ccc(CCNC(=O)c2cc(Cl)ncc2Oc2cccc(C(F)(F)F)c2)c(C)c1", "note": "[Compound I-002]", "LogP": "4.73^[a]"}
{"smiles": "COc1cc(C(=O)NCC(F)(F)c2ccc(Br)cc2Cl)c(Oc2cccc(C(F)(F)F)c2)cn1", "note": "[Compound I-003]", "LogP": "4.95^[a]"}
{"smiles": "COc1cc(C(=O)NCC(F)(F)c2ccc(C)cc2C)c(Oc2cccc(C(F)(F)F)c2)cn1", "note": "[Compound I-004]", "LogP": "4.77^[a]"}
{"smiles": "Cc1ccc(C(F)(F)CNC(=O)c2cc(Cl)ncc2Oc2cccc(C(F)(F)F)c2)c(C)c1", "note": "[Compound I-005]", "LogP": "4.77^[a]"}
{"smiles": "COc1ccc(CCNC(=O)c2cc(Cl)ncc2Oc2cccc(C(F)(F)F)c2)c(OC)c1", "note": "[Compound I-008]", "LogP": "4.06^[a]"}
{"smiles": "O=C(NCC(F)(F)c1ccc(Cl)cc1Cl)c1cc(Cl)ncc1Oc1cccc(C(F)(F)F)c1", "note": "[Compound I-009]", "LogP": "4.82^[a]"}
{"smiles": "O=C(NCC(F)c1ccc(Cl)cc1Cl)c1cc(Cl)ncc1Oc1cccc(C(F)(F)F)c1", "note": "(stereo not drawn) [Compound I-010]", "LogP": "4.74^[a]"}
{"smiles": "O=C(NCC(F)(F)c1ccc(Cl)cc1)c1cc(Cl)ncc1Oc1cccc(C(F)(F)F)c1", "note": "[Compound I-011]", "LogP": "4.41^[a]"}
{"smiles": "O=C(NCC(F)c1ccc(Br)cc1Cl)c1cc(Cl)ncc1Oc1cccc(C(F)(F)F)c1", "note": "(stereo not drawn) [Compound I-012]", "LogP": "4.85^[a]"}
{"smiles": "CC(=O)c1cccc(Oc2cnc(Cl)cc2C(=O)NCCc2ccc(C)cc2C)c1", "note": "[Compound I-014]", "LogP": "3.87^[a]"}
